Target: Dual specificity protein kinase TTK (Mus musculus) (UniProt P35761)
Test: Inhibition of mouse MPS1

Sequence of Dual specificity protein kinase TTK (Mus musculus) (P35761 whole entry, looked up): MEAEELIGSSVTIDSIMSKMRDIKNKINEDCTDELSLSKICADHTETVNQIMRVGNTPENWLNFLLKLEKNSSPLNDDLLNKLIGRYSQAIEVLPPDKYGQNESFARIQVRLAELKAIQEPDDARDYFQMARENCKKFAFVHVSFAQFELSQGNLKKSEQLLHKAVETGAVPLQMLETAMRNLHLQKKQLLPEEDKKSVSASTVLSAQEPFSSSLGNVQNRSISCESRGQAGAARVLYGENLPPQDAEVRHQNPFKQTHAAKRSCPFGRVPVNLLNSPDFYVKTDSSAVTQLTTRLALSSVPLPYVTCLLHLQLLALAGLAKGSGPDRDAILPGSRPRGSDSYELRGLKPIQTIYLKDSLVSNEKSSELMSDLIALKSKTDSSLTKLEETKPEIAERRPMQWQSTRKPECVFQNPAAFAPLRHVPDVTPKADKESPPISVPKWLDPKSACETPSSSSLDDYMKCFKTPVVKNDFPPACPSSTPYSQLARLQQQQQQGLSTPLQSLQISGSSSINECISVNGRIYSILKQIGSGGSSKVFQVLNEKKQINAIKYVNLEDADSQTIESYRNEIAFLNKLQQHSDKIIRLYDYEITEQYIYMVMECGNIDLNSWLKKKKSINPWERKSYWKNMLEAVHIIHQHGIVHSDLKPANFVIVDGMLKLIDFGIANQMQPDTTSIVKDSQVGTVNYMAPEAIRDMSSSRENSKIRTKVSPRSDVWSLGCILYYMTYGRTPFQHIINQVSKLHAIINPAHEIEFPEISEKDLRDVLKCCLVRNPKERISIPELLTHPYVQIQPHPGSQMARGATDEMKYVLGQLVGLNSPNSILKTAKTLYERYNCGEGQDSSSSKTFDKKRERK

| IC50 | SMILES |
| --- | --- |
| 0.055 µM | CC(C)CNc1nccn2c(-c3ccc(C(=O)NC4CC4)cc3)cnc12 |
| 0.009 µM | CC(C)CNc1nc(-c2cccc3ncccc23)cn2c(-c3ccc(C(=O)NC4CC4)cc3)cnc12 |

Source: BindingDB's records for doi:10.1021/acs.jmedchem.3c00963 (n/a, 2023)
